The values below come from ChEMBL document CHEMBL2321798, “Polyamino geranic derivatives as new chemosensitizers to combat antibiotic resistant gram-negative bacteria” (Bioorg Med Chem, 2013).

≈ marks a conversion by molar mass, not a printed value. Calls of active or inactive are those of the source. Residues, ends and D or L forms follow the SMILES beside them. *: point of attachment. βNA = c1ccc2cc(N*)ccc2c1

For assay [1], the system named is Salmonella typhimurium. As to the kind of experiment: Reduction of multidrug-resistant in Salmonella enterica Typhimurium BN10055 assessed as ratio of chloramphenicol MIC to chloramphenicol MIC in presence of compound at 75 uM by micro-broth dilution method. The format is functional, Salmonella enterica subsp. enterica serovar Typhimurium.
Assay [2] deals with Salmonella typhimurium. As to the kind of experiment: Reduction of multidrug-resistant in Salmonella enterica Typhimurium BN10055 assessed as ratio of nalidixic acid MIC to nalidixic acid MIC in presence of compound at 75 uM by micro-broth dilution method. The format is functional, Salmonella enterica subsp. enterica serovar Typhimurium.
Assay [3] concerns Klebsiella aerogenes. As to the kind of experiment: Reduction of multidrug-resistant in Enterobacter aerogenes Ea289 assessed as ratio of nalidixic acid MIC to nalidixic acid MIC in presence of compound at 75 uM by micro-broth dilution method. The format is functional. (In broth dilution the organism is exposed to a series of concentrations in liquid medium.)
Assay [4] has as its system Salmonella typhimurium. As to the kind of experiment: Reduction of multidrug-resistant in Salmonella enterica Typhimurium BN10055 harboring deltaacrB assessed as ratio of nalidixic acid MIC to nalidixic acid MIC in presence of compound by micro-broth dilution method. The format is functional, organism-based. To be noted: Salmonella enterica subsp. enterica serovar Typhimurium.

The test system of assay [5] is Klebsiella aerogenes. As to the kind of experiment: Antibacterial activity against Enterobacter aerogenes Ea294 harboring Ea289deltaacrB after 18 hrs by broth dilution method. The note with it: Ea294, 18 h. The format is functional.
Assay [6] relates to Klebsiella aerogenes. As to the kind of experiment: Antibacterial activity against Enterobacter aerogenes Ea289 after 18 hrs by broth dilution method. The format is functional. To be noted: Ea289, 18 h.
The test system of assay [7] is Klebsiella aerogenes. As to the kind of experiment: Reduction of multidrug-resistant in Enterobacter aerogenes Ea294 harboring Ea289deltaacrB assessed as ratio of chloramphenicol MIC to chloramphenicol MIC in presence of compound by micro-broth dilution method. The format is functional, organism-based.
Assay [8] concerns CHO. As to the kind of experiment: Cytotoxicity against CHO cells. The format is cell-based. To be noted: Cricetulus griseus.
Assay [9] deals with Salmonella typhimurium. As to the kind of experiment: Reduction of multidrug-resistant in Salmonella enterica Typhimurium BN10055 harboring deltaacrB assessed as ratio of chloramphenicol MIC to chloramphenicol MIC in presence of compound by micro-broth dilution method. The note with it: Salmonella enterica subsp. enterica serovar Typhimurium. The format is functional, organism-based.

Assay [10] deals with Klebsiella aerogenes. As to the kind of experiment: Reduction of multidrug-resistant in Enterobacter aerogenes Ea294 harboring Ea289deltaacrB assessed as ratio of nalidixic acid MIC to nalidixic acid MIC in presence of compound by micro-broth dilution method. The format is functional, organism-based.
Assay [11] concerns Salmonella typhimurium. As to the kind of experiment: Antibacterial activity against Salmonella enterica Typhimurium BN10055 after 18 hrs by broth dilution method. The format is functional, Salmonella enterica subsp. enterica serovar Typhimurium. To be noted: BN10055, 18 h.
Assay [12] concerns Klebsiella aerogenes. As to the kind of experiment: Reduction of multidrug-resistant in Enterobacter aerogenes Ea289 assessed as ratio of chloramphenicol MIC to chloramphenicol MIC in presence of compound at 75 uM by micro-broth dilution method. The format is functional.
For assay [13], the target named is T1, AcrB protein (Klebsiella aerogenes) (UniProt Q9AEG1).
T1 sequence (whole entry): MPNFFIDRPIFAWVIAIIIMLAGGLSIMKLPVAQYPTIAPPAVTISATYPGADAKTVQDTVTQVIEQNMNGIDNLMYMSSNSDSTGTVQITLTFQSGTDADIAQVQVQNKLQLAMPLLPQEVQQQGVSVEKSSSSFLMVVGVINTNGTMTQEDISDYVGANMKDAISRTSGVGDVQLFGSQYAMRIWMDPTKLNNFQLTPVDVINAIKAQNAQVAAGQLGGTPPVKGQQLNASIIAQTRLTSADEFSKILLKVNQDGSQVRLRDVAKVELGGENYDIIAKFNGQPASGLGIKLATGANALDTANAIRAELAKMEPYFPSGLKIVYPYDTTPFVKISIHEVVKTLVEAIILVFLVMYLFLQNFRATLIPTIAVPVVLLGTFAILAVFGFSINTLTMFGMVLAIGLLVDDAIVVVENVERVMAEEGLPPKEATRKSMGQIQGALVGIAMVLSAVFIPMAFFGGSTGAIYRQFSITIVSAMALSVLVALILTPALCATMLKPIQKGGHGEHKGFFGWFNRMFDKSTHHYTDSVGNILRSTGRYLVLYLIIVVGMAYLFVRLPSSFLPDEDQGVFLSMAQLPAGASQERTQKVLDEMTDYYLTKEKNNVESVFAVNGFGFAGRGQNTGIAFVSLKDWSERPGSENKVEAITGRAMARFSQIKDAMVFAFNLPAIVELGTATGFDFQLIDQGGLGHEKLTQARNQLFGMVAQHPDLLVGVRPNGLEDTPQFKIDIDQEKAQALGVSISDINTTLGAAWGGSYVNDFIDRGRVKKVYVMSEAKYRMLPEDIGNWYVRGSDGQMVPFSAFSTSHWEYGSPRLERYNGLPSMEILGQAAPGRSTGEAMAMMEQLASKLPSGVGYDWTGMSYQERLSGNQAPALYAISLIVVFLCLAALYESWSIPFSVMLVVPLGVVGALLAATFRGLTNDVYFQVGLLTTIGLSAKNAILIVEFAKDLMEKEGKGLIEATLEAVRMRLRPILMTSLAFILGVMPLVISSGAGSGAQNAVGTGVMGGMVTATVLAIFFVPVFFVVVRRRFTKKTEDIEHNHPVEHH
As to the kind of experiment: Inhibition of AcrB in Enterobacter aerogenes Ea289 assessed as glucose-induced 1,2' dinaphthylamine efflux after 18 hrs.

Assay [14] concerns Salmonella typhimurium. As to the kind of experiment: Antibacterial activity against Salmonella enterica Typhimurium BN10055 harboring deltaacrB after 18 hrs by broth dilution method. The note with it: BN10055, 18 h. The format is functional, Salmonella enterica subsp. enterica serovar Typhimurium.
Assay [15] has as its system Salmonella typhimurium. As to the kind of experiment: Reduction of multidrug-resistant in Salmonella enterica Typhimurium BN10055 assessed as ratio of nalidixic acid MIC to nalidixic acid MIC in presence of compound at 38 uM by micro-broth dilution method. The format is functional, Salmonella enterica subsp. enterica serovar Typhimurium.
Assay [16] deals with Klebsiella aerogenes. As to the kind of experiment: Reduction of multidrug-resistant in Enterobacter aerogenes Ea289 assessed as ratio of chloramphenicol MIC to chloramphenicol MIC in presence of compound at 38 uM by micro-broth dilution method. The format is functional.
The test system of assay [17] is Klebsiella aerogenes. As to the kind of experiment: Reduction of multidrug-resistant in Enterobacter aerogenes Ea289 assessed as ratio of nalidixic acid MIC to nalidixic acid MIC in presence of compound at 38 uM by micro-broth dilution method. The format is functional.
In assay [18] the test system is Salmonella typhimurium. As to the kind of experiment: Reduction of multidrug-resistant in Salmonella enterica Typhimurium BN10055 assessed as ratio of chloramphenicol MIC to chloramphenicol MIC in presence of compound at 38 uM by micro-broth dilution method. The format is functional, Salmonella enterica subsp. enterica serovar Typhimurium.

One may read the MIC as the smallest concentration in the dilution series that meets the test's criterion for growth inhibition. High values mean weaker potency, low ones greater potency. Broadly, the IC50 is the concentration that inhibits the measured activity by half. Read a low IC50 as higher potency. For `CC(C)=CCC/C(C)=C/C(=O)NCCCN1CCOCC1`, the Ratio in assay [1], in [2], in assay [3] and in [12] was 1 each time. For the same compound, the result in [4], in assay [7], in assay [9] and in [10] was inactive. The MIC in [5], in assay [6] and in assay [11] was over 250 µM in each case. Moreover, the IC50 in assay [8] is over 150 µM.
On to `CC(C)=CCC/C(C)=C/C(=O)NCCCNCCCCNCCCN`, for which, in assay [13], the inhibition result was “Dose-dependent effect”.
For `O=C(N[C@H](CO)[C@H](O)c1ccc([N+](=O)[O-])cc1)C(Cl)Cl` [CHLORAMPHENICOL], the MIC turned out to be 200 µM (≈ 64.6 µg/mL) in assay [5], 200 µM (≈ 64.6 µg/mL) in assay [14], 3200 µM (≈ 1030 µg/mL) in [6] and 3200 µM (≈ 1030 µg/mL) in [11].
On to `C[C@H]1c2cccc(O)c2C(=O)C2=C(O)[C@]3(O)C(=O)C(C(N)=O)=C(O)[C@@H](N(C)C)[C@@H]3[C@@H](O)[C@@H]21` [DOXYCYCLINE], for which the MIC in [5] was 2.25 µM (≈ 1 µg/mL); in assay [14], 4.5 µM (≈ 2 µg/mL); in assay [6], 72 µM (≈ 32 µg/mL); in [11], 144 µM (≈ 64 µg/mL).
`CC[C@H]1OC(=O)[C@H](C)[C@@H](O[C@H]2C[C@@](C)(OC)[C@@H](O)[C@H](C)O2)[C@H](C)[C@@H](O[C@@H]2O[C@H](C)C[C@H](N(C)C)[C@H]2O)[C@](C)(O)C[C@@H](C)C(=O)[C@H](C)[C@@H](O)[C@]1(C)O` [ERYTHROMYCIN]: the MIC in assay [5] was determined as 110 µM (≈ 80.7 µg/mL); in [14] it was 55 µM (≈ 40.4 µg/mL); in assay [6] it was 350 µM (≈ 257 µg/mL); in assay [11], 350 µM (≈ 257 µg/mL).
On to `CCn1cc(C(=O)O)c(=O)c2ccc(C)nc21` [NALIDIXIC ACID], for which the MIC in assay [5] came to 4400 µM (≈ 1020 µg/mL); in [14], 275 µM (≈ 63.9 µg/mL); in assay [6], 17600 µM (≈ 4090 µg/mL); in assay [11], 17600 µM (≈ 4090 µg/mL).
On to `N=C(N)NCCC[C@H](NC(=O)[C@@H](N)Cc1ccccc1)C(=O)Nc1ccc2ccccc2c1` [PABETAN] (H-Phe-Arg-βNA), for which the Ratio was 64 in assay [15], 16 in [16], 8 in assay [17] and 8 in assay [18]. The MIC came out at 150 µM (≈ 67 µg/mL) in assay [5], 150 µM (≈ 67 µg/mL) in assay [14], 2430 µM (≈ 1090 µg/mL) in assay [6] and 1220 µM (≈ 543 µg/mL) in assay [11].
